From patent US11986471B2, “Compounds and methods of use” (Tango Therapeutics, Inc., priority 2018, dated 2024)

Assays:
PRMT5 [1] = biological target: T1, PRMT5 (Homo sapiens, UniProt O14744); experiment: PRMT5 IC50 assay in the presence of SAM as cofactor; format: biochemical
T1 construct: purchased Viva (custom protein)
Procedure, shortened: (§1)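 IC50 values were measured against human PRMT5 with SAM, with MTA, or with no cofactor. Ki was derived from IC50 as Ki=IC50/1.5 with SAM and Ki=IC50/13.5 with MTA, and the Ki(SAM)/Ki(MTA) ratio was then taken.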

PRMT5 [2] = biological target: T1, PRMT5; experiment: PRMT5 IC50 assay with no cofactor; format: biochemical
Procedure, shortened: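 Human PRMT5 inhibition, IC50 in μM; cofactor varied (SAM / MTA / none).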

PRMT5 [3] = biological target: T1, PRMT5; experiment: PRMT5 IC50 assay in the presence of MTA as cofactor; format: biochemical; settings: for IC50: PRMT5, MTA as cofactor
Procedure, shortened: as §1

HAP1 MTAP-intact = experiment: SDMA in-cell western assay, HAP1 MTAP-intact cell line; format: cell-based; settings: Homo sapiens
Procedure, shortened: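 IC50 values come from SDMA in-cell western staining of HAP1 cells. The MTAP-intact line carries endogenous MTAP, while its MTAP-deleted counterpart lacks MTAP entirely. A selectivity ratio of at least 3 fold marks a compound as MTAP-selective.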

HAP1 MTAP-deleted = experiment: SDMA in-cell western assay, HAP1 MTAP-deleted cell line; format: cell-based; settings: for IC50: Homo sapiens, HAP1 MTAP-deleted cell line; for MTAP Intact/Deleted Ratio: IC50 ratio HAP1 MTAP-intact / HAP1 MTAP-deleted
Procedure, shortened: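 Readout is cellular SDMA signal by in-cell western, with IC50 values derived from it. The cells are MTAP-null HAP1, matched to an isogenic MTAP-intact HAP1 line.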

[4] = ratio between Ki in the presence of SAM and Ki in the presence of MTA
[5] = ratio between the Ki in the presence of SAM and the Ki in the presence of MTA

T1 sequence (O14744 whole entry): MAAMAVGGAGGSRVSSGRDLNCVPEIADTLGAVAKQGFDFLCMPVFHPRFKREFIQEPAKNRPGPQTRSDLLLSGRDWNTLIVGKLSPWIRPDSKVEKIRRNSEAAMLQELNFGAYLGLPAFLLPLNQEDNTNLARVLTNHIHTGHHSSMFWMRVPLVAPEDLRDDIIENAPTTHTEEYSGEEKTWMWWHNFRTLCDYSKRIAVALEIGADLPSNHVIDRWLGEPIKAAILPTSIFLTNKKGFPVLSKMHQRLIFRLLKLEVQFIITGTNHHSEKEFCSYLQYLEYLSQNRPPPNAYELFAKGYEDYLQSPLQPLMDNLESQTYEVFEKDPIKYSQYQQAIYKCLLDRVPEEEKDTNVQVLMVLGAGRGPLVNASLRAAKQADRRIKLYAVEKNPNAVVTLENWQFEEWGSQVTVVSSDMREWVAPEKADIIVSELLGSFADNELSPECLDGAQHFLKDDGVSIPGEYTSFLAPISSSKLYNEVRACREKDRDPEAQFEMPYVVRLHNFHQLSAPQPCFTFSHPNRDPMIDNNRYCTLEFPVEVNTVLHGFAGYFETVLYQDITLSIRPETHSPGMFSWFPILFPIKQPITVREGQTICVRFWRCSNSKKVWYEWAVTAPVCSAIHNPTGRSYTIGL
T1 sequence (Q9BQA1 whole entry partner): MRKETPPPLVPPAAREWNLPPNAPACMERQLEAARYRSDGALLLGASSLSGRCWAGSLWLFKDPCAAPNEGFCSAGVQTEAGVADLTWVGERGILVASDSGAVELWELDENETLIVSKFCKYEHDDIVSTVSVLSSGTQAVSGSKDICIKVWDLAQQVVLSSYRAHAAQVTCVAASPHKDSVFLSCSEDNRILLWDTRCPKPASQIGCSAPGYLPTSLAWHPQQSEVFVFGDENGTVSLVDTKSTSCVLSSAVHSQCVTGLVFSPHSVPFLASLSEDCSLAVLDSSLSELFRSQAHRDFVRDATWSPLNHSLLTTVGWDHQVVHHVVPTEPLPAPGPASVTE

| SMILES | IC50 (PRMT5 [1]) [nM] | IC50 (PRMT5 [2]; read-out: No Co-factor IC50) [nM] | IC50 (PRMT5 [3]) [nM] | SAM/MTA Ratio (PRMT5 [3]; [4]) | IC50 (HAP1 MTAP-intact) [nM] | IC50 (HAP1 MTAP-deleted) [nM] | MTAP Intact/Deleted Ratio (HAP1 MTAP-deleted) | IC50 (PRMT5 [2]) [nM] | SAM/MTA Ratio (PRMT5 [3]; [5]) |
| --- | --- | --- | --- | --- | --- | --- | --- | --- | --- |
| CC(C)N1CCN(c2nc(NC3COC3)cc(C(=O)NC[C@H](O)CN3CCc4c(ccc(OCc5cnco5)c4Cl)C3)n2)CC1 [Compound 293, (S)—N-(3-(5-chloro-6-(oxazol-5-ylmethoxy)-3N-dihydroisoquinolin-2(1H)-yl)-2-hydroxypropyl)-2-(4-isopropylpiperazin-1-yl)-6-(oxetan-3-ylamino)pyrimidine-4-carboxamide] | 500 to 5000 | 500 to 5000 | 50 to 500 | A (a Ki ratio greater than or equal to 10 fold between the Ki in the presence of SAM and the Ki in the presence of MTA) | ≥ 10000 | ≥ 10000 | C* (an IC50 ratio of less than 3 fold between the IC50 in the HAP1 MTAP-intact cell line and the HAP1 MTAP-deleted cell line) | – | – |
| CC(=O)N1CCC(Nc2cc(C(=O)NC[C@@H](O)CN3CCc4cc(OCc5ocnc5C)ccc4C3)ncn2)CC1 [Compound 249, (R)-6-((1-acetylpiperidin-4-yl)amino)-N-(2-hydroxy-3-(6-((4-methyloxazol-5-yl)methoxy)-3N-dihydroisoquinolin-2(1H)-yl)propyl)pyrimidine-4-carboxamide] | 500 to 5000 | ≥ 5000 | 500 to 5000 | A (a Ki ratio greater than or equal to 10 fold between the Ki in the presence of SAM and the Ki in the presence of MTA) | ≥ 10000 | ≥ 10000 | C* (an IC50 ratio of less than 3 fold between the IC50 in the HAP1 MTAP-intact cell line and the HAP1 MTAP-deleted cell line) | – | – |
| CCN1CCN(c2nc(NC3COC3)cc(C(=O)NC[C@H](O)CN3CCc4c(ccc(OCc5cnco5)c4Cl)C3)n2)CC1 [Compound 324] | 50 to 500 | 500 to 5000 | 50 to 500 | A (a Ki ratio greater than or equal to 10 fold between the Ki in the presence of SAM and the Ki in the presence of MTA) | ≥ 10000 | 1000 to 10000 | C* (an IC50 ratio of less than 3 fold between the IC50 in the HAP1 MTAP-intact cell line and the HAP1 MTAP-deleted cell line) | – | – |
| CC(=O)N1CC(Nc2cc(C(=O)NC[C@H](O)CN3CCc4c(ccc(OCc5ocnc5C)c4C)C3)nc(C(C)C)n2)C1 [Compound 575, (S)-6-((1-acetylazetidin-3-yl)amino)-N-(2-hydroxy-3-(5-methyl-6-((4-methyloxazol-5-yl)methoxy)-3A-dihydroisoquinolin-2(1H)-yl)propyl)-2-isopropylpyrimidine-4-carboxamide] | 50 to 500 | – | 50 to 500 | – | ≥ 10000 | 1000 to 10000 | B* (an IC50 ratio greater than or equal to 3 fold but lower than 10 fold between the IC50 in the HAP1 MTAP-intact cell line and the HAP1 MTAP-deleted cell line) | ≥ 5000 | A (a Ki ratio greater than or equal to 10 fold between the Ki in the presence of SAM and the Ki in the presence of MTA) |
| CCN1CCN(c2cc(C(=O)NC[C@H](O)CN3CCc4cc(OCc5cnco5)ccc4C3)cc(NC3CCC3)n2)CC1 [Compound 286] | 50 to 500 | 500 to 5000 | 50 to 500 | A (a Ki ratio greater than or equal to 10 fold between the Ki in the presence of SAM and the Ki in the presence of MTA) | 1000 to 10000 | 1000 to 10000 | B* (an IC50 ratio greater than or equal to 3 fold but lower than 10 fold between the IC50 in the HAP1 MTAP-intact cell line and the HAP1 MTAP-deleted cell line) | – | – |
| Cc1nocc1COc1ccc2c(c1C)CCN(C[C@@H](O)CNC(=O)c1ccnc(NC3CCC3)c1)C2 [Compound 263, 2-(cyclobutylamino)-N-[(2S)-2-hydroxy-3-[5-methyl-6-[(3-methylisoxazol-4-yl)methoxy]-3,4-dihydro-1H-isoquinolin-2-yl]propyl]pyridine-4-carboxamide] | 500 to 5000 | ≥ 5000 | 500 to 5000 | A (a Ki ratio greater than or equal to 10 fold between the Ki in the presence of SAM and the Ki in the presence of MTA) | ≥ 10000 | ≥ 10000 | C* (an IC50 ratio of less than 3 fold between the IC50 in the HAP1 MTAP-intact cell line and the HAP1 MTAP-deleted cell line) | – | – |
| Cc1ncoc1COc1ccc2c(c1C)CCN(C[C@@H](O)CNC(=O)c1cccc(NC3COC3)c1)C2 [Compound 375, N-[(2S)-2-hydroxy-3-{5-methyl-6-[(4-methyl-1,3-oxazol-5-yl)methoxy]-1,2,3,4-tetrahydroisoquinolin-2-yl}propyl]-3-[(oxetan-3-yl)amino]benzamide] | 500 to 5000 | ≥ 5000 | 500 to 5000 | A (a Ki ratio greater than or equal to 10 fold between the Ki in the presence of SAM and the Ki in the presence of MTA) | ≥ 10000 | ≥ 10000 | C* (an IC50 ratio of less than 3 fold between the IC50 in the HAP1 MTAP-intact cell line and the HAP1 MTAP-deleted cell line) | – | – |
| Cc1c(OCc2cnco2)ccc2c1CCN(C[C@@H](O)CNC(=O)c1ccnc(NC3CCN(C(=O)C4CCC4)CC3)c1)C2 [Compound 494, (S)-2-((1-(cyclobutanecarbonyl)piperidin-4-yl)amino)-N-(2-hydroxy-3-(5-methyl-6-(oxazol-5-ylmethoxy)-3N-dihydroisoquinolin-2(1H)-yl)propyl)isonicotinamide] | 50 to 500 | – | 50 to 500 | – | ≥ 10000 | 1000 to 10000 | B* (an IC50 ratio greater than or equal to 3 fold but lower than 10 fold between the IC50 in the HAP1 MTAP-intact cell line and the HAP1 MTAP-deleted cell line) | 500 to 5000 | A (a Ki ratio greater than or equal to 10 fold between the Ki in the presence of SAM and the Ki in the presence of MTA) |
| Cc1c(OCc2cnco2)ccc2c1CCN(C[C@@H](O)CNC(=O)c1ccnc(NC3CCCC3)c1)C2 [Compound 356, 2-(cyclopentylamino)-N-[(2S)-2-hydroxy-3-{5-methyl-6-[(1,3-oxazol-5-yl)methoxy]-1,2,3,4-tetrahydroisoquinolin-2-yl}propyl]pyridine-4-carboxamide] | 50 to 500 | ≥ 5000 | 50 to 500 | A (a Ki ratio greater than or equal to 10 fold between the Ki in the presence of SAM and the Ki in the presence of MTA) | ≥ 10000 | ≥ 10000 | C* (an IC50 ratio of less than 3 fold between the IC50 in the HAP1 MTAP-intact cell line and the HAP1 MTAP-deleted cell line) | – | – |
| Cc1ncoc1COc1ccc2c(c1)CCN(C[C@@H](O)CNC(=O)c1cc(NC3COC3)nc(N3CCN(C(C)(C)C)CC3)n1)C2 [Compound 396, 2-(4-tert-butylpiperazin-1-yl)-N-[(2S)-2-hydroxy-3-(6-[(4-methyl-1,3-oxazol-5-yl)methoxy]-1,2,3,4-tetrahydroisoquinolin-2-yl}propyl]-6-[(oxetan-3-yl)amino]pyrimidine-4-carboxamide] | 50 to 500 | 500 to 5000 | 50 to 500 | A (a Ki ratio greater than or equal to 10 fold between the Ki in the presence of SAM and the Ki in the presence of MTA) | 1000 to 10000 | < 1000 | C* (an IC50 ratio of less than 3 fold between the IC50 in the HAP1 MTAP-intact cell line and the HAP1 MTAP-deleted cell line) | – | – |
| O=C(NC[C@H](O)CN1CCc2cc(OCc3cnco3)cc(F)c2C1)c1ccnc(NC2CCC2)c1 [Compound 362, 2-(cyclobutylamino)-N-[(2S)-3-[8-fluoro-6-(oxazol-5-ylmethoxy)-3,4-dihydro-1H-isoquinolin-2-yl]-2-hydroxy-propyl]pyridine-4-carboxamide] | 500 to 5000 | ≥ 5000 | 50 to 500 | A (a Ki ratio greater than or equal to 10 fold between the Ki in the presence of SAM and the Ki in the presence of MTA) | < 1000 | 1000 to 10000 | C* (an IC50 ratio of less than 3 fold between the IC50 in the HAP1 MTAP-intact cell line and the HAP1 MTAP-deleted cell line) | – | – |
| CC(C)N1CCN(c2cc(C(=O)NC[C@H](O)CN3CCc4cc(OCc5cnco5)ccc4C3)cc(NC3CCC3)n2)CC1 [Compound 462, (S)-2-(cyclobutylamino)-N-(2-hydroxy-3-(6-(oxazol-5-ylmethoxy)-3,4-dihydroisoquinolin-2(1H)-yl)propyl)-6-(4-isopropylpiperazin-1-yl)isonicotinamide] | 50 to 500 | – | 50 to 500 | – | ≥ 10000 | ≥ 10000 | C* (an IC50 ratio of less than 3 fold between the IC50 in the HAP1 MTAP-intact cell line and the HAP1 MTAP-deleted cell line) | 500 to 5000 | A (a Ki ratio greater than or equal to 10 fold between the Ki in the presence of SAM and the Ki in the presence of MTA) |
